# Measured values published in patent US4175081A, “5-Substituted thiadiazole ureas” (priority 1977, dated 1979).
# Assays:
# Barnyard grass (BG) [1] = assay: Pre-emergence herbicide test; assay type: in vivo; details: Echinochloa crus-galli, 336 h, 8 lb/acre, two weeks after treatment
# Summary of the method: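 Greenhouse pre-emergence spray test: pots seeded one day before treatment received compound at rates of 8 or 4 lb/acre (38 gal/acre). Visual injury/control scores for Echinochloa crus-galli taken at two weeks, with watering by sub-irrigation only.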
# Bean (BN) [2] = assay: Post-emergence herbicide test; assay type: in vivo, Phaseolus vulgaris var. Black Valentine; details: Phaseolus vulgaris, post-emergence, 336 h; 8 lb/acre; two weeks after treatment
# Summary of the method: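 Bean seedlings (Phaseolus vulgaris var. Black Valentine) were grown in potting soil in 3' pots until the primary leaves expanded. They were then sprayed under a hood with a removable belt and fixed nozzle, using 50 ml formulations. Afterward they were returned to the greenhouse and watered only by sub-irrigation. Percent control was judged visually two weeks after treatment.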
# Corn (CN) [3] = assay: Post-emergence herbicide test; assay type: in vivo; details: Zea mays, 336 h, 8 lb/acre, two weeks after treatment
# Summary of the method: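 Greenhouse seedlings grown in potting soil and sprayed post-emergence at 8 lbs compound/acre (formulations also made for 4 lbs/acre) in 38 gallons/acre spray volume. Watering by sub-irrigation only. Injury or control rated visually two weeks after treatment.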
# Amaranth pigweed (PW) [4] = assay: Pre-emergence herbicide test; assay type: in vivo, Amaranthus retroflexus; details: 336 h, 8 lb/acre, two weeks after treatment
# Summary of the method: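 Visual injury or control ratings were made at two weeks on pre-emergence pots, sub-irrigated in the greenhouse. Seeds were sown a day before a hood spray delivering 8 lbs/acre (or 4 lbs/acre) of compound in 38 gallons per acre.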
# [5] = tested on: Yellow foxtail grass (YF); assay: Post-emergence herbicide test; assay type: in vivo, Setaria glauca; details: Setaria, 336 h, 8 lb/acre, two weeks after treatment
# Summary of the method: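 Visual rating of injury/control made 2 weeks post-spray. Seedlings at a uniform growth stage in soil-filled pots received a hood spray of 8 lbs/acre active compound, 38 gallons/acre volume, with a 4 lbs/acre rate also formulated. Watering was by sub-irrigation only.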
# Turnip (TP) [6] = assay: Pre-emergence herbicide test; assay type: in vivo, Brassica sp.; details: Brassica rapa, pre-emergence, 336 h; 8 lb/acre; two weeks after treatment
# Summary of the method: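 In this pre-emergence greenhouse test, turnip was seeded on the surface of potting soil in 3' plastic pots, lightly covered with screened soil, and watered from below. One day later the pots were sprayed in a belt-fed spray hood. Watering continued only by sub-irrigation, and percent control was visually scored two weeks after treatment.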
# Johnson grass (JG) [7] = assay: Pre-emergence herbicide test; assay type: in vivo, Sorgum helepense; details: Sorghum halepense, 336 h, 8 lb/acre, two weeks after treatment
# Summary of the method: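 Visual injury or control rating two weeks post-treatment, after pre-emergence spray of 8 or 4 lbs active per acre (38 gal/acre) onto pots sown the previous day. Greenhouse watering by sub-irrigation only.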
# Amaranth pigweed (PW) [8] = assay: Post-emergence herbicide test; assay type: in vivo, Amaranthus retroflexus; details: 336 h, 8 lb/acre, two weeks after treatment
# Summary of the method: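 Visual injury or control ratings were made two weeks after spraying, with greenhouse watering by sub-irrigation only. Treatment was post-emergence, when pigweed seedlings had 1 or 2 true leaves, at 8 lbs active compound per acre (4 lbs/acre formulations also made) in a 38 gallons-per-acre spray volume.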
# [9] = tested on: Yellow foxtail grass (YF); assay: Pre-emergence herbicide test; assay type: in vivo, Setaria glauca; details: Setaria, 336 h, 8 lb/acre, two weeks after treatment
# Summary of the method: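 Visual rating of injury/control made two weeks after a pre-emergence spray of 8 or 4 lbs active per acre (38 gal/acre) onto pots seeded the previous day. Greenhouse watering by sub-irrigation only.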
# Corn (CN) [10] = assay: Pre-emergence herbicide test; assay type: in vivo; details: Zea mays, 336 h, 8 lb/acre, two weeks after treatment
# Summary of the method: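 Visual injury/control ratings were made 2 weeks post-spray on corn pots seeded (4 seeds, seed-diameter depth) the day before treatment. Application was a belt-hood spray of 38 gal/acre delivering 8 lbs active per acre, with a 4 lbs/acre rate also formulated. Watering was by sub-irrigation throughout.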
# Cotton (CT) [11] = assay: Pre-emergence herbicide test; assay type: in vivo, Gossypium hirsutum var. DPL smooth leaf; details: Gossypium hirsutum, 336 h, 8 lb/acre, two weeks after treatment
# Summary of the method: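 Visual injury/control ratings were taken at two weeks post-spray. Pots seeded a day earlier received compound pre-emergence at 8 lbs/acre, or 4 lbs/acre, in a 38 gallon/acre spray volume, and were then held in the greenhouse, watered only from below.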
# Bean (BN) [12] = assay: Pre-emergence herbicide test; assay type: in vivo, Phaseolus vulgaris var. Black Valentine; details: Phaseolus vulgaris, 336 h, 8 lb/acre, two weeks after treatment
# Summary of the method: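 Visual injury/control ratings were taken two weeks post-spray on sub-irrigated Phaseolus vulgaris var. Black Valentine. Pots were sown a day before treatment. Pre-emergence spray delivered 8 lbs actual compound per acre (or 4 lbs/acre) at 38 gallons per acre.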
# Turnip (TP) [13] = assay: Post-emergence herbicide test; assay type: in vivo, Brassica sp.; details: Brassica rapa, post-emergence, 336 h; 8 lb/acre; two weeks after treatment
# Summary of the method: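 A greenhouse post-emergence herbicide test on turnip. Seeds were sown on the surface of potting soil in 3' plastic pots, lightly covered with screened soil and watered from below. Planting was timed so seedlings had 1 or 2 true leaves above the cotyledons at spraying, done in a hood with a fixed nozzle. Control or injury was scored by eye after two weeks.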
# Crabgrass (CG) [14] = assay: Pre-emergence herbicide test; assay type: in vivo, Digitaria sanquinalis; details: Digitaria sanguinalis, pre-emergence, 336 h; 8 lb/acre; two weeks after treatment
# Summary of the method: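 Crabgrass (Digitaria sanquinalis) was surface seeded in 3' plastic pots of potting soil, covered with screened soil, and watered by sub-irrigation in greenhouse trays. Pots were seeded one day before spraying in a hood with a moving belt and fixed nozzle. Plants stayed in the greenhouse on sub-irrigation, and pre-emergence control was rated visually two weeks after treatment.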
# Barnyard grass (BG) [15] = assay: Post-emergence herbicide test; assay type: in vivo; details: Echinochloa crus-galli, 336 h, 8 lb/acre, two weeks after treatment
# Summary of the method: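 Greenhouse pot-grown barnyard grass seedlings sprayed post-emergence at 8 lbs active compound per acre (some at 4 lbs/acre) in 38 gallons per acre, then sub-irrigated. Injury or control rated visually two weeks after treatment.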
# [16] = tested on: variety of crops and weed species; assay: Pre- and post-emergence herbicide tests, overall assessment of Tables III-VI; assay type: in vivo; details: data of Tables III-VI
# Summary of the method: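 Crops and weeds grown in potting soil were sprayed at 8 lbs. compound per acre in 38 gallons per acre, pre-emergence pots seeded one day before treatment. Injury or control was visually rated two weeks after treatment.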
# Johnson grass (JG) [17] = assay: Post-emergence herbicide test; assay type: in vivo, Sorgum helepense; details: Sorghum halepense, 336 h, 8 lb/acre, two weeks after treatment
# Summary of the method: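 Visual injury or control scores taken 2 weeks after a post-emergence spray of pot-grown plants. Application was 8 lbs/acre (or 4 lbs/acre) in 38 gal/acre. Plants were held in the greenhouse with sub-irrigation only.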
# Cotton (CT) [18] = assay: Post-emergence herbicide test; assay type: in vivo, Gossypium hirsutum var. DPL smooth leaf; details: Gossypium hirsutum, post-emergence, 336 h; 8 lb/acre; two weeks after treatment
# Summary of the method: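 This greenhouse post-emergence test measured how well spray treatments controlled cotton. Seedlings of Gossypium hirsutum var. DPL smooth leaf, with expanded cotyledons and a first true leaf 1' in length, were sprayed with 50 ml formulations in a belt-fed spray hood. They were then returned to the greenhouse and watered only by sub-irrigation. Injury was scored visually as % control after two weeks.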
# Crabgrass (CG) [19] = assay: Post-emergence herbicide test; assay type: in vivo, Digitaria sanquinalis; details: Digitaria sanguinalis, post-emergence, 336 h; 8 lb/acre; two weeks after treatment
# Summary of the method: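 Crabgrass (Digitaria sanquinalis) was surface seeded individually in 3' plastic pots of potting soil, covered with screened soil, and watered by sub-irrigation in greenhouse trays. Planting was staggered so seedlings reached the target stage together. Post-emergence sprays were applied in a hood with a removable belt and fixed nozzle, and control was visually rated two weeks after treatment.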
Compound,pest or weed control at 8966.8 g/ha (Barnyard grass (BG) [1]) [%],pest or weed control at 8966.8 g/ha (Bean (BN) [2]) [%],pest or weed control at 8966.8 g/ha (Corn (CN) [3]) [%],pest or weed control at 8966.8 g/ha (Amaranth pigweed (PW) [4]) [%],pest or weed control at 8966.8 g/ha [5] [%],pest or weed control at 8966.8 g/ha (Turnip (TP) [6]) [%],pest or weed control at 8966.8 g/ha (Johnson grass (JG) [7]) [%],pest or weed control at 8966.8 g/ha (Amaranth pigweed (PW) [8]) [%],pest or weed control at 8966.8 g/ha [9] [%],pest or weed control at 8966.8 g/ha (Corn (CN) [10]) [%],pest or weed control at 8966.8 g/ha (Cotton (CT) [11]) [%],pest or weed control at 8966.8 g/ha (Bean (BN) [12]) [%],pest or weed control at 8966.8 g/ha (Turnip (TP) [13]) [%],pest or weed control at 8966.8 g/ha (Crabgrass (CG) [14]) [%],pest or weed control at 8966.8 g/ha (Barnyard grass (BG) [15]) [%],"herbicidal effectiveness / selectivity, in words [16]",pest or weed control at 8966.8 g/ha (Johnson grass (JG) [17]) [%],pest or weed control at 8966.8 g/ha (Cotton (CT) [18]) [%],pest or weed control at 8966.8 g/ha (Crabgrass (CG) [19]) [%]
C=CCNC(=O)Nc1nnc(C(F)(F)F)s1 [Example 12],10,100,40,10,40,10,10,70,10,10,30,10,70,20,50,"control post-emergence growth, while have little effect in regard to pre-emergence",40,90,50
CNC(=O)Nc1nnc(COC)s1 [Example 25],10,100,30,10,20,10,10,40,10,10,100,70,30,20,20,more selective when applied to a certain crop or weed species,30,100,30
CNC(=O)Nc1nncs1 [Example 35],10,30,10,10,10,10,10,100,10,10,100,60,20,10,10,more selective when applied to a certain crop or weed species,10,50,10
